How the values were obtained:
[1] = Distribution of compounds in liver and blood of CD-1 mice; format: in vivo; conditions: single oral dose
Description: Experimental purpose: distribution of compounds in liver and blood of CD-1 mice was tested;
CD-1 Mice (male, 25-35 g, 6-9 weeks old, Shanghai Slack);
Experimental procedure: after oral administration, the drug was distributed in the liver and blood of rodents, candidate compounds in the experiment were formulated into a clear solution to be administered to mice in a single oral dose. The oral solvent was a certain proportion of an aqueous solution of hydroxypropyl P-cyclodextrin or a physiological saline solution. The concentration of the drug in the liver and blood was measured at 1 hour and 4 hours after administration.

CYP3A4 = CYP3A4 (Homo sapiens (Human), UniProt P08684); experiment: Human liver microsomal CYP inhibition assay; format: in vitro ADME; conditions: human liver microsomes, 5-in-1 probe substrate
Sequence of CYP3A4 (P08684 whole entry): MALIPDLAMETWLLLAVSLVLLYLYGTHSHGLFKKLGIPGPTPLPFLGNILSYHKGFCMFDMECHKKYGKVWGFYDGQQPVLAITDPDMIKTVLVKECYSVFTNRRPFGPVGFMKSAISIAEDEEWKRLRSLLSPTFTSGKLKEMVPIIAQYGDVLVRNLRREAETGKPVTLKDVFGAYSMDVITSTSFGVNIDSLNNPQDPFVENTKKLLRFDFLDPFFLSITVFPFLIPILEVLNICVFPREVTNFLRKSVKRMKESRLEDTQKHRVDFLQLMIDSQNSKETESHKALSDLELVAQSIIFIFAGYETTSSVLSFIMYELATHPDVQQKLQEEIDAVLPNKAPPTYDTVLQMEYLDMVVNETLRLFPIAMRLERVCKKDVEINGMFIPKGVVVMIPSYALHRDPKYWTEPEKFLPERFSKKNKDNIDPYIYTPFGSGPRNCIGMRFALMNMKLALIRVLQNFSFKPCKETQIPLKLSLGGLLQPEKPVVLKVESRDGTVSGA
Description: (§1) The purpose of the study was to evaluate the inhibition of the test sample on human liver microsomal cytochrome P450 isozymes (CYP1A2, CYP2C9, CYP2C19, CYP2D6, and CYP3A4) by using the CYP isozyme 5-in-1 probe substrate.
(§2) Mixed human liver microsomes (HLM) were purchased from Corning Inc. (Steuben, N.Y., USA) or XenoTech, LLC. (Lenexa, Kans., USA) or other suppliers, and stored at the temperature below −70° C. prior to use.
(§3) A series of diluted test sample working solution were added to an incubation system containing cofactors of human liver microsomes, a probe substrate and a circulation system, and the control without a test substance but containing a solvent was used as enzyme activity control (100%). The concentration of the metabolite produced by the probe sample in the sample was determined by liquid chromatography-tandem mass spectrometry (LC-MS/MS). Non-linear regression analysis was performed on the concentration of the average percent activity of the test sample by using SigmaPlot (V.11). The IC50 value was calculated by a three-parameter or four-parameter recursive logarithmic equation.

CYP2D6 = CYP2D6 (Homo sapiens (Human), UniProt P10635); experiment: Human liver microsomal CYP inhibition assay; format: in vitro ADME; conditions: human liver microsomes, 5-in-1 probe substrate
Sequence of CYP2D6 (P10635 whole entry): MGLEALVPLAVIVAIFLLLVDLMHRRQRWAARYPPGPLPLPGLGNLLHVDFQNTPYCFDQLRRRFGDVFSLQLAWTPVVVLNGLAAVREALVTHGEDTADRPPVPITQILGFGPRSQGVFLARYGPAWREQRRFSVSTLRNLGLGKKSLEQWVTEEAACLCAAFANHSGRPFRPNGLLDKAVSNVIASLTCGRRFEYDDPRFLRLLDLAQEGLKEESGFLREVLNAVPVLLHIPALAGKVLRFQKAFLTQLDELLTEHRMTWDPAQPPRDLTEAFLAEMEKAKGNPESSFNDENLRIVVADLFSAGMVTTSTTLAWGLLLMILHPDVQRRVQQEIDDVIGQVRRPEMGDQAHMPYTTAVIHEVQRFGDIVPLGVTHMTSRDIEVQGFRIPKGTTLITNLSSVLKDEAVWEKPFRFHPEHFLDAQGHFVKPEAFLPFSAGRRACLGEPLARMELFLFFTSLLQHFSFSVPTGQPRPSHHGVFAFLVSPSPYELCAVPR
Description: as §1, §2, §3

CYP2C19 = CYP2C19 (Homo sapiens (Human), UniProt P33261); experiment: Human liver microsomal CYP inhibition assay; format: in vitro ADME; conditions: human liver microsomes, 5-in-1 probe substrate
Sequence of CYP2C19 (P33261 whole entry): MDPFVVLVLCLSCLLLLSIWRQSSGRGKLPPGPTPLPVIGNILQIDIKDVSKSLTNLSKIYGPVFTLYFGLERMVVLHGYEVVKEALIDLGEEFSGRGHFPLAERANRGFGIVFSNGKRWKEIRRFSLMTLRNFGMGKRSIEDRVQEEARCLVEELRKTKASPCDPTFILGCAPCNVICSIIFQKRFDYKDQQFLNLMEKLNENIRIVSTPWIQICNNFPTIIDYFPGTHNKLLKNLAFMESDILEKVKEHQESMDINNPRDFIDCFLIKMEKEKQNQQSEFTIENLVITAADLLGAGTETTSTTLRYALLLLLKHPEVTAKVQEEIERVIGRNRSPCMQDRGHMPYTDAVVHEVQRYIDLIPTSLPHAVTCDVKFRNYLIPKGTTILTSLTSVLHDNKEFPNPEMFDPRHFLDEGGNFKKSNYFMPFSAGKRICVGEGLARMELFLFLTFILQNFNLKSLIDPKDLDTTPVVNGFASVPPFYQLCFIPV
Description: as §1, §2, §3

CYP1A2 = CYP1A2 (Homo sapiens (Human), UniProt P05177); experiment: Human liver microsomal CYP inhibition assay; format: in vitro ADME; conditions: human liver microsomes, 5-in-1 probe substrate
Sequence of CYP1A2 (P05177 whole entry): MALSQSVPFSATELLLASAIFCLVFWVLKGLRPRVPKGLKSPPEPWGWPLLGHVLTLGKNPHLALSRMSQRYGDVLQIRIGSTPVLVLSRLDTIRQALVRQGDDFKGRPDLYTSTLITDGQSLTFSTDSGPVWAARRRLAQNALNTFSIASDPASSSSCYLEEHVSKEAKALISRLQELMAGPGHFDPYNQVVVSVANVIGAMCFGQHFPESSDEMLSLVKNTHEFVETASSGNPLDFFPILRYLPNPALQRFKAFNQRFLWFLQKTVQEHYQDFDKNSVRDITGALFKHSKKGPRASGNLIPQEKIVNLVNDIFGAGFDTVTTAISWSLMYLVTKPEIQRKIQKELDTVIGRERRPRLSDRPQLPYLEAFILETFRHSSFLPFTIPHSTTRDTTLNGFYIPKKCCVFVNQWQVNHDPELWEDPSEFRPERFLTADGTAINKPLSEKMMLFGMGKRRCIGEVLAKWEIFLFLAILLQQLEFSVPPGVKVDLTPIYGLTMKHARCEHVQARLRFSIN
Description: as §1, §2, §3

CYP2C9 = CYP2C9 (Homo sapiens (Human), UniProt P11712); experiment: Human liver microsomal CYP inhibition assay; format: in vitro ADME; conditions: human liver microsomes, 5-in-1 probe substrate
Sequence of CYP2C9 (P11712 whole entry): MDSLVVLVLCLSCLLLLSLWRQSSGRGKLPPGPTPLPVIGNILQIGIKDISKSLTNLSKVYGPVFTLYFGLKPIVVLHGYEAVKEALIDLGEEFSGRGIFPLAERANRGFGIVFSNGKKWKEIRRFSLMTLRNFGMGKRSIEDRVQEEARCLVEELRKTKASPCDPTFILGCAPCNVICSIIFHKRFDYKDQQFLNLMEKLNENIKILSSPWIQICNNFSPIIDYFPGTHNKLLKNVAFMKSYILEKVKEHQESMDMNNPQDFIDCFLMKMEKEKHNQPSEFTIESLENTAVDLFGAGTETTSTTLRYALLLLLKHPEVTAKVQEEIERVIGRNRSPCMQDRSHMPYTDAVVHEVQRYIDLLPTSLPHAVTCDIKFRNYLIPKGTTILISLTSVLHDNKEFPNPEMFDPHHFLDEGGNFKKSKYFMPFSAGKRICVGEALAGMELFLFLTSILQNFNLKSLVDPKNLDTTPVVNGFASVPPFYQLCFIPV
Description: as §1, §2, §3

hERG potassium channel = hERG potassium channel (Homo sapiens (Human), UniProt Q12809); experiment: Inhibition test of hERG potassium ion channel (automatic patch clamp, CHO-hERG cells); format: cell-based
Sequence of hERG potassium channel (Q12809 whole entry): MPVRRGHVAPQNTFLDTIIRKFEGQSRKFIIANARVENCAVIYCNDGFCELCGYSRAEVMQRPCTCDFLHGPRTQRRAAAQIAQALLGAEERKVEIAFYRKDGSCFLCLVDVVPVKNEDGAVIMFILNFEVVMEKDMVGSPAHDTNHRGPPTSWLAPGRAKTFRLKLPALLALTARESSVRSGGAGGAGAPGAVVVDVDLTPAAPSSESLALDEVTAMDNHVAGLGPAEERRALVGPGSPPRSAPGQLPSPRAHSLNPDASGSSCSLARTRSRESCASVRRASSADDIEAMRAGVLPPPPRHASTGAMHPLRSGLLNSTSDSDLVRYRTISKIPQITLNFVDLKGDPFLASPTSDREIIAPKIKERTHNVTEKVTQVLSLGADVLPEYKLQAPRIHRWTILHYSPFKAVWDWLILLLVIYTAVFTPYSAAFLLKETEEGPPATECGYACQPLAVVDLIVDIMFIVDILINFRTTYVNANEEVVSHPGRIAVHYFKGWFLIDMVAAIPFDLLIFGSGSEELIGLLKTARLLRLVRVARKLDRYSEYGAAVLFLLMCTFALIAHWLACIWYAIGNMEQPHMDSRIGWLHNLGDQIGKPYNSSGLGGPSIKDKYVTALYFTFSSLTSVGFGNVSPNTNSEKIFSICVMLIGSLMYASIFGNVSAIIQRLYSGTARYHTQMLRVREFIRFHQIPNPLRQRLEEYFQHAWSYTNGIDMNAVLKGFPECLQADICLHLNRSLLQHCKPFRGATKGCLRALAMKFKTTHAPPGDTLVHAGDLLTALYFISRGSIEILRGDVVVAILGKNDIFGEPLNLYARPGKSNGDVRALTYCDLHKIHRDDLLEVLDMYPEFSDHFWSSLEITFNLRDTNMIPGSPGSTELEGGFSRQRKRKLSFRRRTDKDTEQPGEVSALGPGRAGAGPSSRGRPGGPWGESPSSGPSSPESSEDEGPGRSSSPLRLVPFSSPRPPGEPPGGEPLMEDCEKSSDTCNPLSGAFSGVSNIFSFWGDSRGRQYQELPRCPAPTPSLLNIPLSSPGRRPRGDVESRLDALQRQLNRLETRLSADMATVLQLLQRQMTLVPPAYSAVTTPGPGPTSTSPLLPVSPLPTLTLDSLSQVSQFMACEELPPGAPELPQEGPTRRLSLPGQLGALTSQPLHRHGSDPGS
Description: The effect of the to-be-tested compound on the potassium ion channel of hERG was detected by a fully automatic patch clamp method.
The cells stably expressing hERG potassium channel used in the experiment were obtained from CHO-hERE of Aviva Biosciences, and CHO-hERG was cultured in 5% CO2 at 37° C.
CHO-hERG cells prepared for the experiment were cultured for at least two days, and the cell density reached 75% or more. Prior to the start of the experiment, cells were digested with TrypLE and then resuspended in extracellular fluid to collect the cells.
The to-be-tested compound and the positive control Amitriptyline were dissolved in DMSO to a certain concentration of the stock solution, and then diluted according to different gradients, and finally added to the extracellular fluid in a certain ratio, and diluted to a concentration to be measured. Visual inspection was performed to see if there was any precipitation before the start of the experiment. Finally, the concentration of DMSO in the to-be-tested solution and the positive control Amitriptyline should not exceed 0.3%.
The clamping potential was kept at −80 mv, first a voltage stimulation of −50 mv was given for 80 ms to record the cell leakage current value, and then was depolarized to +20 mv to be maintained for 4800 ms, the channel of hERG was open, and then repolarized to −50 mv to be maintained 5000 ms, hERG tail current was led out and recorded, and finally, the voltage was returned to the clamping potential of −80 mv to be maintained for 3100 ms. The above voltage stimulation was repeated once every 15000 ms.
hERG QPatch^HTX experiment was performed at room temperature. A whole cell protocol, a voltage stimulation protocol and a compound detection protocol were established on the software of QPatch Assay Software 5.2 (Sophion Bioscience).
First, 30 repeated set voltage stimulations were performed, which was the baseline area for subsequent analysis, followed by the addition of 5 μl of extracellular fluid, repeated for three times. The concentration of each compound added in sequence was repeated three times in a volume of 5 μl. The cells were incubated for at least 5 min at each test concentration. During the entire recording process, the indicators needed to meet the data analysis acceptance criteria. If the standard was not met, the cells would not be included in the analysis scope, and the compounds would be retested. The above recording process was automatically operated by Qpatch analysis software. […]
In each complete current record, based on the percentage of peak current in the negative control, the percent inhibition of the concentration of each compound can be calculated. […]

[2] = Compound pharmacokinetic evaluation in SD rats; format: in vivo; conditions: male, Sprague-Dawley, rat, plasma
Description: Experimental purpose: compound pharmacokinetics were tested in SD rats
Sprague Dawley rats (male, 200-300 g, 7-9 weeks old, Shanghai Slack)
Experimental procedure: the pharmacological characteristics of the compound after intravenous and oral administration were tested in rodents by standard protocol, candidate compounds in the experiment was prepared into clear solutions to be administered to the rats in a single intravenous injection and orally. The intravenous and oral solvents were a certain proportion of an aqueous hydroxypropyl 3-cyclodextrin solution or a physiological saline solution. Whole blood samples within 24 hours were collected, and centrifuged at 3000 g for 15 minutes, the supernatant was separated to obtain plasma samples, 4 times volume of acetonitrile solution containing internal standard was added to precipitate protein, centrifuging was conducted to take the supernatant, equal volume of water was added and centrifuging was conducted to the supernatant to be sampled. The LC-MS/MS analysis method was used to quantitatively analyze the plasma concentration, and the pharmacokinetic parameters such as peak concentration, peak time, clearance rate, half-life, area under the drug concentration-time curve, and bioavailability were calculated.

- Liver Concentration ([1]; @1.0 hour): 13520
- Liver Concentration/Plasma Concentration ratio ([1]; @1.0 hour): 15
- Plasma Concentration ([1]; @1.0 hour): 934
- Liver Concentration ([1]; @4.0 hour): 3364
- Liver Concentration/Plasma Concentration ratio ([1]; @4.0 hour): 17
- Plasma Concentration ([1]; @4.0 hour): 190
- IC50 (CYP3A4): > 50 µM
- IC50 (CYP2D6): 36 µM
- IC50 (CYP2C19): 17 µM
- IC50 (CYP1A2): 5 µM
- IC50 (CYP2C9): 24 µM
- Tmax ([2]; oral, read-out: Peak Time Tmax): 1.5 h
- bioavailability ([2]; po, read-out: Bioavailability F): 99%
- AUC ([2]; read-out: Concentration Integral AUC): 9.31 µM·h
- Cmax ([2]; single intravenous injection and oral, read-out: Peak Concentration Cmax): 2340 nM
Compound: Cl.Cn1nc(-c2ccc(OC/C(=C/F)CN)cc2)nc1C(F)F [WX126]
- IC50 (hERG potassium channel; QPatch whole cell patch clamp, CHO-hERG, 0.24-30.00 μM): > 30 µM
- Inhibition of hERG potassium current (in words) (hERG potassium channel; conclusion statement): weak inhibition

— US11001563B2, “SSAO inhibitor” (SHANDONG DANHONG PHARMACEUTICAL CO., LTD., priority 2017, dated 2021)
